We go through 1 sequence from patent publication US5874405A, “Heat shock protein peptides that share sequences with cyclic nucleotide phosphodiesterase and methods for modulating autoimmune central nervous system disease” (priority 1994, dated 1999).

Where no end group is shown, it is not given here.

The test system of the test is antibodies in cerebrospinal fluid (CSF) and sera. The test is described as follows: Dot-blot analysis of CSF and sera for antibodies to CNP 173-184 peptide. Type of test: binding, human. The conditions noted are these: for patients whose CSF had antibodies to the peptide: data not shown. Here is the method: Cerebrospinal fluid (CSF) and sera from MS patients and controls were analyzed for antibodies to the peptide derived from CNP isoform 2 (corresponding to amino acids 173-184) using dot-blot analyses. Samples from nine MS patients and five patients with other neurologic diseases (OND) were analyzed. The CNP 173-184 peptide coupled to BSA was adsorbed onto nitrocellulose membranes. Control wells received BSA alone. Two dilutions of paired spinal fluids and sera were added to the wells and the amount of antibody binding determined using peroxidase labeled anti-human IgG and an enhanced chemiluminescent assay (ECL Western Blotting Kit; Amersham International, Plc., Buckinghamshire, England). Using the public domain program, Image 1.40 (available from NIH), the integrated densities of the dots in the CNP 173-184 peptide wells and BSA wells were determined.

Take LKKLKPGLEKDF [CNP 173-184 peptide]: for the setting “MS patients”, the “patients whose CSF had antibodies to the peptide” value was 5/9 and the “number of patients with antibodies in sera” value came to 3. Also, where the note is “OND patients”, the “patients whose CSF had antibodies to the peptide” value is given as 0/5 and the “number of patients with antibodies in sera” value was 1. Further, the “densities in peptide wells relative to BSA wells” value (MS CSF) is on record as “approximately twofold”.
